According to patent US9970938B2, “Use of BUBR1 as a biomarker of drug response to furazanobenzimidazoles” (Basilea Pharmaceutica AG, priority 2011, dated 2018):

Tests used:
Type in all cases: cell-based, human
[1] = test system: Panc1 cells; assay: Crystal Violet assay of siRNA-treated cells; settings: BUBR1 siRNA pool, 30 nM, 48 hours
Procedure: (§1) For siRNA experiments to assess effects on BUBR1 expression levels by immunoblotting and effects on tumour cell proliferation and viability using the YO-PRO assay (FIGS. 7, 9,10 and 11), and Crystal Violet Assay (FIGS. 12 and 13), cells were seeded in 6 well plates at an appropriate density: HeLa (cervical cancer cells; ATCC reference CCL-2) 2.5E+04 (for YO-PRO) or 4.0E+04 (for Crystal Violet) cells per well, H460 (NSCLC cells; ATCC reference HTB-177) 5.0E+04 cells per well, MCF-7 (breast carcinoma cells; ATCC reference HTB-22) 2.4E+05 cells per well, Panc1 (pancreatic cancer cells, ATCC reference CRL-1469) and HCT116 (colon cancer cells, ATCC reference CCI-247) 8E+04 cells per well, and were cultured at 37° C. and 5% CO2 in RPMI-1640 or DMEM containing 10% FCS (complete medium). Cells were transfected the following day with a mixture of four BUBR1 siRNAs (ON-Target-plus Smartpool L-004101, Dharmacon, see sequence information below), the four individual BUBR1 siRNAs (ON-Target-plus Set of four upgrade LU-004101) or non-targeting control siRNAs (ON-Target-plus non-targeting pool D001810, Dharmacon), using Hiperfect (Qiagen) for H460, Panc1 and HCT116 or Lipofectamine2000 (Invitrogen) for HeLa and MCF-7 according to manufacturer's instructions. The final concentration of siRNA was 10 nM (H460) or 20-30 nM (HeLa) or 20 nM (MCF-7, Panc1, HCT116). Cells were maintained at 37° C. and 5% CO2 for 24 hours before compound treatment for 48 hours, followed by YO-PRO analysis, Crystal Violet Assay or extraction for immunoblot assay. ON-Target-plus siRNAs are dual-strand siRNAs, chemically modified to improve specificity for the desired target.
(§2) Cells were incubated for 48 hours with DMSO or BAL27862 diluted in complete medium (final concentration DMSO 0.5%). After medium was removed, cells were fixed and stained by adding 1 ml Crystal Violet Staining (0.2% Crystal Violet in 50% Methanol) per well. Plates were incubated for 1 hour at room temperature. Subsequently the stain was decanted and plates were washed 4 times with double-distilled water. Plates were air-dried for several hours. Stain was dissolved by adding 2 ml buffer (0.1 M Tris pH 7.5, 0.2% SDS, 20% Ethanol) per well and shaking the plates. Absorbance at 590 nm was measured using a SpectraMax M2^e plate reader (Molecular Devices). In order to subtract starting cell numbers, a control plate was fixed and stained on the same day the compound was added. Final results were calculated by subtracting the starting cell absorbance from that of control (DMSO) or compound treated cells. Values lower than zero indicate cell death.

[2] = test system: HCT116 cells; assay: Crystal Violet assay of siRNA-treated cells; settings: BUBR1 siRNA pool, 50 nM, 48 hours
Procedure: as §1, §2

[3] = test system: HeLa cells; assay: Crystal Violet assay of siRNA-treated cells; settings: 48 hours
Procedure: as §1, §2

[4] = test system: LXFA629; assay: Colony outgrowth assay, patient-derived tumour xenograft cells; parameters: key: S: BAL27862-sensitive tumour cells have IC70 values in the low nanomolar range; R: BAL27862-resistant tumour cells are defined by IC70 values >600 nanomolar; settings: Lung
Procedure: (§3) Single cell suspensions of patient-derived tumour xenografts (maintained in nude mice) were prepared. For colony outgrowth assays, cells were plated in soft agar in 24-well plates according to the assay introduced by Hamburger & Salmon (Primary bioassay of human tumour stem cells, Science, 1977, 197:461-463). 2.0E+04-6.0E+04 cells in 0.2 mL medium containing 0.4% agar were plated out on a bottom layer of 0.75% agar. Test compounds were applied in 0.2 mL culture medium. Every 24-well plate contained untreated controls and samples in triplicates. Cultures were incubated at 37° C. and 7.5% CO2 for 5-28 days. 24 hours prior to analysis, vital colonies were stained with a solution of metabolizable tetrazolium salt (Alley M C et al, Life Sci. 1982, 31:3071-3078) and were counted with an automatic image analysis system (Omnicon 3600, Biosys GmbH).
(§4) Relative drug effects were expressed by the ratio of the mean number of colonies in the treated wells and the control wells. IC70-values were determined by plotting compound concentrations versus relative colony counts.

[5] = test system: GXF97; assay: as above; parameters: key: S: BAL27862-sensitive tumour cells have IC70 values in the low nanomolar range; R: BAL27862-resistant tumour cells are defined by IC70 values >600 nanomolar; settings: Gastric
Procedure: as §3, §4

[6] = test system: LXFL529; assay: as above; parameters: key: S: BAL27862-sensitive tumour cells have IC70 values in the low nanomolar range; R: BAL27862-resistant tumour cells are defined by IC70 values >600 nanomolar; settings: Lung
Procedure: as §3, §4

[7] = test system: GXF251; assay: as above; parameters: key: S: BAL27862-sensitive tumour cells have IC70 values in the low nanomolar range; R: BAL27862-resistant tumour cells are defined by IC70 values >600 nanomolar; settings: Gastric
Procedure: as §3, §4

[8] = test system: A549 NSCLC cells; assay: Immunofluorescent staining of microtubules in cultured cells
Procedure: (§5) A549 human non-small cell lung cancer (NSCLC, ATCC reference number CCL-185) cells, HeLa cervical cancer cells (ATCC reference number CCL-2) and SKBR3 breast carcinoma cells (ATCC reference number HTB-30) were seeded at densities of 50% on round microscope coverslips and cultured for 24 hours in RPMI-1640 containing 10% FCS (also referred to as FBS) at 37° C., 5% CO2. Compounds to be tested were dissolved in DMSO. The cell culture medium was replaced with medium containing the diluted compound(s) (paclitaxel, vinblastine, colchicine and nocodazole were purchased from Sigma-Aldrich) or vehicle. After treatment, coverslips were washed and cells were fixed in methanol/acetone (1:1) for 5 minutes at room temperature and subsequently incubated in blocking buffer (0.5% BSA and 0.1% TX-100 in PBS) for 30 minutes at room temperature. Specimens were then incubated with anti-alpha-tubulin antibody (Sigma, 1:2000) for 1 hour at room temperature in blocking buffer. After several washing steps cells were incubated with AlexaFluor-488 goat-anti-mouse IgG (Molecular Probes, 1:3000) for 1 hour at room temperature followed by several washing steps with blocking buffer. Specimens were then mounted with ProLong Gold antifade (Molecular Probes), sealed with nail polish and examined with a Leica immunofluorescence microscope. Images were captured with a cooled CCD-camera and processed by ImageJ software.

[9] = test system: HeLa cervical cancer cells; assay: as above; settings: 24 hours, 50 nM
Procedure: as §5

[10] = test system: SKBR3 breast cancer cells; assay: as above; settings: 24 hours, 50 nM
Procedure: as §5

N#CCCNc1nonc1-c1nc2ccccc2n1CC(=O)c1ccc(N)cc1 [BAL27862, 3-(4-{1-[2-(4-Amino-phenyl)-2-oxo-ethyl]-1H-benzoimidazol-2-yl}-furazan-3-ylamino)-propionitrile]
cellular proliferation with reduced BUBR1 expression [1]: same effects were again observed | cellular proliferation with reduced BUBR1 expression [2]: same effects were again observed | cellular proliferation with reduced BUBR1 expression ([3]; BUBR1 siRNA pool, 50 nM): same effects were again observed | effect on cellular proliferation after individual BUBR1 siRNAs ([3]; siRNA #1-4, 50 nM): decreased the effect of BAL27862 on cellular proliferation | Sensitive (S)/Resistant (R), by IC70 in colony outgrowth [4]: R (BAL27862-resistant tumour cells are defined by IC70 values >600 nanomolar) | Sensitive (S)/Resistant (R), by IC70 in colony outgrowth [5]: R (BAL27862-resistant tumour cells are defined by IC70 values >600 nanomolar) | Sensitive (S)/Resistant (R), by IC70 in colony outgrowth [6]: S | Sensitive (S)/Resistant (R), by IC70 in colony outgrowth [7]: S | microtubule phenotype of mitotic or G2/M arrested cells ([8]; 24 hours treatment, anti-alpha-tubulin staining): highly reproducible and distinct microtubule phenotype | microtubule phenotype, BAL27862 added for the last 4 hours of 24 hours vinblastine, colchicine, paclitaxel or nocodazole treatment ([8]; combination): disruption of the microtubule structures | microtubule phenotype of mitotic or G2/M arrested cells [9]: highly reproducible and distinct microtubule phenotype | microtubule phenotype of mitotic or G2/M arrested cells [10]: highly reproducible and distinct microtubule phenotype
